From ChEMBL document CHEMBL3885881, “DrugMatrix”

Organism: Rattus norvegicus
Experiment: DrugMatrix - Regimen: Daily Repeat
Assay type: toxicity, organism-based, Sprague-Dawley
Design: regimen Daily Repeat, gender Male, age 6-8 weeks
Settings: in vivo, sc, route subcutaneous, […]; for ABSOLUTE BASOPHIL / ABSOLUTE EOSINOPHIL / ABSOLUTE LYMPHOCYTE / ABSOLUTE MONOCYTE / ABSOLUTE SEGMENTED NEUTROPHIL / BASOPHIL / EOSINOPHIL / ERYTHROCYTE COUNT / HEMATOCRIT / HEMOGLOBIN / LEUKOCYTE COUNT / LYMPHOCYTE / MEAN CORPUSCULAR HEMOGLOBIN / MEAN CORPUSCULAR HEMOGLOBIN CONCENTRATION / MEAN CORPUSCULAR VOLUME / MONOCYTE / NEUTROPHIL / NUCLEATED RED BLOOD CELLS / PLATELET COUNT: tissue Blood; for ALANINE AMINOTRANSFERASE / ALBUMIN / ALKALINE PHOSPHATASE / ASPARTATE AMINOTRANSFERASE / BLOOD UREA NITROGEN / CARBON DIOXIDE / CHLORIDE / CHOLESTEROL / CREATINE PHOSPHOKINASE / CREATININE / GLUCOSE / LACTATE DEHYDROGENASE / LIPASE / PHOSPHORUS / POTASSIUM / SODIUM / TOTAL BILIRUBIN / TOTAL PROTEIN / URIC ACID: tissue Plasma
[1] = 24 mg/kg, 72 h, dose level High, time 3 day
[2] = 24 mg/kg, 120 h, dose level High, time 5 day
[3] = 72 h, dose 9.6 mg/Kg, dose level Low, time 3 day
[4] = 120 h, dose 9.6 mg/Kg, dose level Low, time 5 day

`CCCCNc1ccc(C(=O)OCCN(C)C)cc1` [TETRACAINE] was tested, and the “ABSOLUTE BASOPHIL” value [1] was 0 CELLS/uL, the “ABSOLUTE EOSINOPHIL” value [1] was 116 CELLS/uL and the “ABSOLUTE LYMPHOCYTE” value [1] was 16844.33 CELLS/uL. The “ABSOLUTE MONOCYTE” value [1] was 146.67 CELLS/uL, the “ABSOLUTE SEGMENTED NEUTROPHIL” value [1] was 1826.33 CELLS/uL and the BASOPHIL [1] was 0%. The EOSINOPHIL [1] was 0.67%, the “ERYTHROCYTE COUNT” value [1] was 5.64 x10E6/uL and the HEMATOCRIT [1] was 36.43%. The HEMOGLOBIN [1] was 14.5 G/DL, the “LEUKOCYTE COUNT” value [1] was 18.93 x10E3/uL and the LYMPHOCYTE [1] was 89%. For the same molecule, the “MEAN CORPUSCULAR HEMOGLOBIN” value [1] was 25.67 pg, the “MEAN CORPUSCULAR HEMOGLOBIN CONCENTRATION” value [1] was 39.83 G/DL and the “MEAN CORPUSCULAR VOLUME” value [1] was 64.53 fL. The MONOCYTE [1] was 0.67%, the NEUTROPHIL [1] was 9.67% and the “NUCLEATED RED BLOOD CELLS” value [1] was 0.33 /100WBC. The “PLATELET COUNT” value [1] was 1264.67 x10E3/uL, the “ALANINE AMINOTRANSFERASE” value [1] was 68.67 u/L and the ALBUMIN [1] was 4.23 G/DL. For the same molecule, the “ALKALINE PHOSPHATASE” value [1] was 328 u/L, the “ASPARTATE AMINOTRANSFERASE” value [1] was 81 u/L and the “BLOOD UREA NITROGEN” value [1] was 17 mg/dL. The “CARBON DIOXIDE” value [1] was 22.67 mmol/L, the CHLORIDE [1] was 104 MEQ/L and the CHOLESTEROL [1] was 77 mg/dL. The “CREATINE PHOSPHOKINASE” value [1] was 175.67 u/L, the CREATININE [1] was 0.27 mg/dL and the GLUCOSE [1] was 177.33 mg/dL. The “LACTATE DEHYDROGENASE” value [1] was 88.67 u/L, the LIPASE [1] was 9.67 u/L and the PHOSPHORUS [1] was 12.97 mg/dL. The POTASSIUM [1] was 6.72 MEQ/L, the SODIUM [1] was 147.97 MEQ/L and the “TOTAL BILIRUBIN” value [1] was 0.27 mg/dL. The “TOTAL PROTEIN” value [1] was 6.03 G/DL, the “URIC ACID” value [1] was 1.53 mg/dL and the “ABSOLUTE BASOPHIL” value [2] was 0 CELLS/uL. The “ABSOLUTE EOSINOPHIL” value [2] was 49.33 CELLS/uL, the “ABSOLUTE LYMPHOCYTE” value [2] was 12917.33 CELLS/uL and the “ABSOLUTE MONOCYTE” value [2] was 97.33 CELLS/uL. For the same molecule, the “ABSOLUTE SEGMENTED NEUTROPHIL” value [2] was 1669.33 CELLS/uL, the BASOPHIL [2] was 0% and the EOSINOPHIL [2] was 0.33%. The “ERYTHROCYTE COUNT” value [2] was 5.38 x10E6/uL, the HEMATOCRIT [2] was 33.97% and the HEMOGLOBIN [2] was 13.67 G/DL. For the same molecule, the “LEUKOCYTE COUNT” value [2] was 14.73 x10E3/uL, the LYMPHOCYTE [2] was 87.67% and the “MEAN CORPUSCULAR HEMOGLOBIN” value [2] was 25.47 pg. The “MEAN CORPUSCULAR HEMOGLOBIN CONCENTRATION” value [2] was 40.3 G/DL, the “MEAN CORPUSCULAR VOLUME” value [2] was 63.2 fL and the MONOCYTE [2] was 0.67%. The NEUTROPHIL [2] was 11.33%, the “NUCLEATED RED BLOOD CELLS” value [2] was 0.33 /100WBC and the “PLATELET COUNT” value [2] was 1410.33 x10E3/uL. The “ALANINE AMINOTRANSFERASE” value [2] was 58.33 u/L, the ALBUMIN [2] was 3.93 G/DL and the “ALKALINE PHOSPHATASE” value [2] was 329 u/L. The “ASPARTATE AMINOTRANSFERASE” value [2] was 92.67 u/L, the “BLOOD UREA NITROGEN” value [2] was 14.67 mg/dL and the “CARBON DIOXIDE” value [2] was 23 mmol/L. For the same molecule, the CHLORIDE [2] was 104.67 MEQ/L, the CHOLESTEROL [2] was 71 mg/dL and the “CREATINE PHOSPHOKINASE” value [2] was 172 u/L. For the same molecule, the CREATININE [2] was 0.22 mg/dL, the GLUCOSE [2] was 160.67 mg/dL and the “LACTATE DEHYDROGENASE” value [2] was 83.67 u/L. The LIPASE [2] was 9.67 u/L, the PHOSPHORUS [2] was 12.47 mg/dL and the POTASSIUM [2] was 6.53 MEQ/L. The SODIUM [2] was 146.2 MEQ/L, the “TOTAL BILIRUBIN” value [2] was 0.23 mg/dL and the “TOTAL PROTEIN” value [2] was 5.73 G/DL. The “URIC ACID” value [2] was 1.73 mg/dL, the “ABSOLUTE BASOPHIL” value [3] was 0 CELLS/uL and the “ABSOLUTE EOSINOPHIL” value [3] was 226.67 CELLS/uL. For the same molecule, the “ABSOLUTE LYMPHOCYTE” value [3] was 14925.33 CELLS/uL, the “ABSOLUTE MONOCYTE” value [3] was 512.67 CELLS/uL and the “ABSOLUTE SEGMENTED NEUTROPHIL” value [3] was 768.67 CELLS/uL. The BASOPHIL [3] was 0%, the EOSINOPHIL [3] was 1.67% and the “ERYTHROCYTE COUNT” value [3] was 5.36 x10E6/uL. For the same molecule, the HEMATOCRIT [3] was 34.5%, the HEMOGLOBIN [3] was 13.5 G/DL and the “LEUKOCYTE COUNT” value [3] was 16.43 x10E3/uL. For the same molecule, the LYMPHOCYTE [3] was 90.67%, the “MEAN CORPUSCULAR HEMOGLOBIN” value [3] was 25.17 pg and the “MEAN CORPUSCULAR HEMOGLOBIN CONCENTRATION” value [3] was 39.17 G/DL. For the same molecule, the “MEAN CORPUSCULAR VOLUME” value [3] was 64.4 fL, the MONOCYTE [3] was 2.33% and the NEUTROPHIL [3] was 5.33%. For the same molecule, the “NUCLEATED RED BLOOD CELLS” value [3] was 0.33 /100WBC, the “PLATELET COUNT” value [3] was 1368.67 x10E3/uL and the “ALANINE AMINOTRANSFERASE” value [3] was 52.33 u/L. The ALBUMIN [3] was 4.1 G/DL, the “ALKALINE PHOSPHATASE” value [3] was 338.33 u/L and the “ASPARTATE AMINOTRANSFERASE” value [3] was 87.67 u/L. The “BLOOD UREA NITROGEN” value [3] was 15 mg/dL, the “CARBON DIOXIDE” value [3] was 22.67 mmol/L and the CHLORIDE [3] was 104.67 MEQ/L. For the same molecule, the CHOLESTEROL [3] was 79.67 mg/dL, the “CREATINE PHOSPHOKINASE” value [3] was 530.33 u/L and the CREATININE [3] was 0.16 mg/dL. The GLUCOSE [3] was 187 mg/dL, the “LACTATE DEHYDROGENASE” value [3] was 122.67 u/L and the LIPASE [3] was 9.33 u/L. For the same molecule, the PHOSPHORUS [3] was 13.8 mg/dL, the POTASSIUM [3] was 5.89 MEQ/L and the SODIUM [3] was 147.2 MEQ/L. The “TOTAL BILIRUBIN” value [3] was 0.2 mg/dL, the “TOTAL PROTEIN” value [3] was 5.73 G/DL and the “URIC ACID” value [3] was 1.9 mg/dL. For the same molecule, the “ABSOLUTE BASOPHIL” value [4] was 0 CELLS/uL, the “ABSOLUTE EOSINOPHIL” value [4] was 0 CELLS/uL and the “ABSOLUTE LYMPHOCYTE” value [4] was 14217 CELLS/uL. For the same molecule, the “ABSOLUTE MONOCYTE” value [4] was 0 CELLS/uL, the “ABSOLUTE SEGMENTED NEUTROPHIL” value [4] was 2349.67 CELLS/uL and the BASOPHIL [4] was 0%. For the same molecule, the EOSINOPHIL [4] was 0%, the “ERYTHROCYTE COUNT” value [4] was 5.59 x10E6/uL and the HEMATOCRIT [4] was 35.87%. The HEMOGLOBIN [4] was 14.33 G/DL, the “LEUKOCYTE COUNT” value [4] was 16.57 x10E3/uL and the LYMPHOCYTE [4] was 85.67%. The “MEAN CORPUSCULAR HEMOGLOBIN” value [4] was 25.6 pg, the “MEAN CORPUSCULAR HEMOGLOBIN CONCENTRATION” value [4] was 39.97 G/DL and the “MEAN CORPUSCULAR VOLUME” value [4] was 64.13 fL. The MONOCYTE [4] was 0%, the NEUTROPHIL [4] was 14.33% and the “NUCLEATED RED BLOOD CELLS” value [4] was 0.33 /100WBC. For the same molecule, the “PLATELET COUNT” value [4] was 1151 x10E3/uL, the “ALANINE AMINOTRANSFERASE” value [4] was 58 u/L and the ALBUMIN [4] was 4.1 G/DL. For the same molecule, the “ALKALINE PHOSPHATASE” value [4] was 278.67 u/L, the “ASPARTATE AMINOTRANSFERASE” value [4] was 76.33 u/L and the “BLOOD UREA NITROGEN” value [4] was 17.67 mg/dL. The “CARBON DIOXIDE” value [4] was 23.33 mmol/L, the CHLORIDE [4] was 103.67 MEQ/L and the CHOLESTEROL [4] was 76.33 mg/dL. The “CREATINE PHOSPHOKINASE” value [4] was 262.33 u/L, the CREATININE [4] was 0.16 mg/dL and the GLUCOSE [4] was 153.67 mg/dL. The “LACTATE DEHYDROGENASE” value [4] was 205 u/L, the LIPASE [4] was 9.67 u/L and the PHOSPHORUS [4] was 12.83 mg/dL. The POTASSIUM [4] was 6.7 MEQ/L, the SODIUM [4] was 147.8 MEQ/L and the “TOTAL BILIRUBIN” value [4] was 0.23 mg/dL. For the same molecule, the “TOTAL PROTEIN” value [4] was 5.73 G/DL and the “URIC ACID” value [4] was 1.53 mg/dL.
